According to ChEMBL document CHEMBL5584240, “Evaluation of potency and metabolic stability of diphyllin-derived Vacuolar-ATPase inhibitors” (Eur J Med Chem, 2024):
pEC50: −log10 of the molar value. Activity calls are given as the source filed them. The calls are words filed in the database; no cut-off is given here.

Legend:
[1] = system: Ebolavirus; assay: Antiviral activity against recombinant Ebola virus Mayinga expressing GFP infected in human HeLa cells with ATP6V0a2 KO assessed as reduction in viral entry into cells pretreated for 1 hr followed by viral infection measured after 24 to 48 hrs by imaging analysis; type: functional, organism-based; conditions: Orthoebolavirus
[2] = system: HEK293; assay: Cytotoxicity against HEK293 cells incubated for 72 hrs by MTT assay; type: toxicity, cell-based; conditions: human, hek293, 72 h
[3] = system: A549; assay: Induction of phospholipidosis in NBD-PE-treated human A549 cells at 10 uM incubated for 24 hrs by imaging based analysis; type: functional, cell-based
[4] = Oral bioavailability in ICR mouse at 75 mg/kg by LC-MS/MS analysis; type: ADME, organism-based; conditions: in vivo

| SMILES | pEC50 [1] | CC50 [2] [nM] | Activity [3] | bioavailability [4] [%] |
| --- | --- | --- | --- | --- |
| COc1cc2c(O)c3c(c(-c4ccc5c(c4)OCO5)c2cc1OC)C(=O)OC3 [DIPHYLLIN] | 5.96 | > 80000 | inactive |  |
| COc1cc2c(O[C@@H]3O[C@H](CO)[C@@H]4OC(C)(C)O[C@@H]4[C@H]3O)c3c(c(-c4ccc5c(c4)OCO5)c2cc1OC)C(=O)OC3 |  |  |  | 2.5 |
